Reference: the NIST ThermoML archive (doi:10.1016/j.jct.2006.09.016)
Numbers after ± are expanded uncertainties.

Experiments:
[1] = Crystal; DTA
[2] = Molar enthalpy of transition or fusion; settings: Crystal; DSC
[3] = molar heat capacity at constant pressure; settings: 101.33 kPa, Crystal

ON=Cc1ccccn1 [2-pyridinealdoxime]
Settings	Molar enthalpy of transition or fusion [kJ/mol]	Normal melting temperature [°C]
[1]	–	113.08 ± 0.5
[2]	20 ± 0.6	–

[3]
Settings	molar heat capacity at constant pressure [J/K/mol]
80.46 K	51.68 ± 0.57
84.39 K	53.78 ± 0.59
87.27 K	55.38 ± 0.6
90.22 K	57.07 ± 1
93.26 K	58.78 ± 1
96.22 K	60.42 ± 1
99.1 K	61.8 ± 1
102.07 K	63.16 ± 1.1
105.13 K	64.65 ± 1.1
108.12 K	65.95 ± 1.1
111.05 K	67.4 ± 1.1
113.93 K	68.69 ± 1.1
116.9 K	69.94 ± 1.1
119.96 K	71.33 ± 1.1
122.97 K	72.93 ± 1.1
125.94 K	74.14 ± 1.1
128.85 K	75.41 ± 1.1
131.74 K	76.56 ± 1.1
134.71 K	77.89 ± 1.1
137.77 K	79.05 ± 1.1
140.8 K	80.49 ± 1.1
143.79 K	81.65 ± 1.1
146.74 K	82.72 ± 1.1
149.66 K	83.99 ± 1.1
152.56 K	85.27 ± 1.1
155.54 K	86.71 ± 1.1
158.61 K	87.83 ± 1.2
161.66 K	88.91 ± 1.2
164.67 K	90.3 ± 1.2
167.66 K	91.7 ± 1.2
170.63 K	92.91 ± 1.2
173.58 K	93.88 ± 1.2
176.5 K	95.23 ± 1.2
179.4 K	96.67 ± 1.2
182.38 K	97.92 ± 1.2
185.45 K	99.23 ± 1.2
188.5 K	100.67 ± 1.2
191.52 K	101.97 ± 1.2
194.53 K	103.16 ± 1.2
197.5 K	104.64 ± 1.2
200.47 K	106.06 ± 1.2
203.41 K	107 ± 1.2
206.33 K	108.59 ± 1.2
209.23 K	109.82 ± 1.2
212.22 K	111.35 ± 1.2
215.29 K	112.9 ± 1.3
218.35 K	113.97 ± 1.3
221.38 K	115.37 ± 1.3
224.38 K	117.31 ± 1.3
227.37 K	118.7 ± 1.3
230.3 K	120 ± 1.3
233.32 K	121.77 ± 1.3
236.35 K	123.52 ± 1.3
239.26 K	124.25 ± 1.3
242.25 K	125.83 ± 1.3
245.32 K	127.09 ± 1.3
248.39 K	128.4 ± 1.3
251.44 K	129.85 ± 1.3
254.47 K	130.36 ± 1.3
257.5 K	131.52 ± 1.3
260.5 K	132.74 ± 1.3
263.49 K	134.49 ± 1.3
266.46 K	136.14 ± 1.3
269.41 K	137.72 ± 1.4
272.35 K	139.5 ± 1.4
275.26 K	140.58 ± 1.4
278.17 K	142.55 ± 1.4
281.06 K	143.7 ± 1.4
284.01 K	145.45 ± 1.4
287.04 K	147.06 ± 1.4
290.04 K	148.68 ± 1.4
293.01 K	149.59 ± 1.4
295.98 K	150.99 ± 1.4
298.93 K	152.1 ± 1.4
301.87 K	153.86 ± 1.4
304.78 K	154.72 ± 1.4
307.69 K	155.91 ± 1.4
310.57 K	157.91 ± 1.4
313.44 K	159.33 ± 1.4
316.29 K	160.28 ± 1.4
319.11 K	161.83 ± 1.4
321.92 K	163.28 ± 1.5
324.8 K	164.64 ± 1.5
327.74 K	165.88 ± 1.5
330.66 K	167.18 ± 1.5
333.57 K	168.11 ± 1.5
336.45 K	169.62 ± 1.5
339.31 K	171.01 ± 1.5
342.16 K	172.57 ± 1.5
344.98 K	173.51 ± 1.5
347.78 K	174.14 ± 1.5
350.55 K	175.82 ± 1.5
353.29 K	176.47 ± 1.5
355.96 K	177.08 ± 1.5
358.4 K	178.59 ± 1.5
360.61 K	179.15 ± 1.5
363.31 K	180.38 ± 1.5
365.84 K	181.56 ± 1.5
367.88 K	182.97 ± 1.5
370.49 K	183.67 ± 1.5
372.97 K	184.42 ± 1.5
